Data taken from patent publication US9546150B2, “Substituted quinazolin-4-ones for inhibiting ubiquitin specific protease 7” (HYBRIGENICS SA, priority 2011, dated 2017).

Tests used:
USP8 = biological target: T1, USP8 (Homo sapiens, UniProt P40818); assay: GST-Ub52-Flag HTRF deubiquitinating enzyme assay, USP8
T1 sequence (P40818 1-1118): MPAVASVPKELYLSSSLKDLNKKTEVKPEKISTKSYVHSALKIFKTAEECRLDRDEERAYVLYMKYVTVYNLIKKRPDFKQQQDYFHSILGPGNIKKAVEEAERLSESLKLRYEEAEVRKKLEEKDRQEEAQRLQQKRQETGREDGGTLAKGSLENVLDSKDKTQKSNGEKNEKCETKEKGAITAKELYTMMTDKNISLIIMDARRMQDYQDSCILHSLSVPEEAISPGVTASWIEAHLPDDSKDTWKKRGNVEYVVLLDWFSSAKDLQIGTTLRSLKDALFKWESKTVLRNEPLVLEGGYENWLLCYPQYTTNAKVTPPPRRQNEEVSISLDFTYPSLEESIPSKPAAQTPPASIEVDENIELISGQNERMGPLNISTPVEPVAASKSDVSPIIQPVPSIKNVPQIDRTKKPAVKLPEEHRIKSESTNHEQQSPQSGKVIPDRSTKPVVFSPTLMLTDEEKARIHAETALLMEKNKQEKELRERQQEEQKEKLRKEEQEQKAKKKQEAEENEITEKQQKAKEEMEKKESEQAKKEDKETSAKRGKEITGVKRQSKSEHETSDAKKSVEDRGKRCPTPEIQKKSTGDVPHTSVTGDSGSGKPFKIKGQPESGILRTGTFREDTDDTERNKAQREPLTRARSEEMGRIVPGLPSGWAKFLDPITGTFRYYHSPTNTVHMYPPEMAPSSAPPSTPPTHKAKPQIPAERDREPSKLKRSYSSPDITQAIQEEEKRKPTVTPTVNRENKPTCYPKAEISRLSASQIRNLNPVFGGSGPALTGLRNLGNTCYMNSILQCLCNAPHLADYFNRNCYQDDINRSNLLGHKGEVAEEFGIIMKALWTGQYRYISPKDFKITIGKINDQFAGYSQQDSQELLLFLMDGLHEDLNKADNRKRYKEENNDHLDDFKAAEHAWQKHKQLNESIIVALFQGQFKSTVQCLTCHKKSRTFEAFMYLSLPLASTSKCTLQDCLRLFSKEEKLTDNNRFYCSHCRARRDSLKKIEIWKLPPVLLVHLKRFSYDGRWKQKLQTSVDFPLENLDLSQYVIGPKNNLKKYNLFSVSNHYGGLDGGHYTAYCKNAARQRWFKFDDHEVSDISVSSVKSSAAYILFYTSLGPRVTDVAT
Description: The cDNA encoding USP8 was obtained by PCR amplification from placenta mRNA. USP8 cDNA was subcloned by PCR into a baculovirus expression vector (pFastBac-HT; Invitrogen). A cDNA encoding a mutated USP8 was generated by mutagenic PCR. […] The sequences were ascertained by sequencing of the entire open reading frame. Bacmids encoding USP8 were generated following DH10bac transposition. The corresponding bacmids were transfected into insect cells (Sf9). Viruses were recovered from culture supernatant and amplified twice. Insect cells (Sf9 or High Five; Invitrogen) were infected for 72 hours. […] Proteins were affinity purified on metal affinity resins (Talon Metal affinity resin; BD Biosciences). Bound materials were extensively washed in wash buffer (50 mM Sodium Phosphate pH 7.0; 300 mM NaCl; 10 mM imidazole; 0.5% Triton X-100; 10% glycerol) and eluted from the resin in 250 mM imidazole-containing wash buffer. Proteins were dialyzed in dialysis buffer (Tris HCl pH 7.6 20 mM; NaCl 200 mM; DTT 1 mM; EDTA 1 mM; 10% Glycerol).
A cDNA encoding the fusion protein between ubiquitin and the ribosomal protein L40 (ub52 or uba52 or ubiquitin-L40) was amplified from human RNA using a proprietary human placenta library. The cDNA was subcloned into a bacterial expression vector (pGEX-2T, GE Healthcare), including an additional flag tag at the carboxyl end of the encoded protein.
For production and purification of recombinant proteins, the plasmid pGEX-2T-Ub52-flag was transformed into E. coli BL21 (Stratagene), grown in LB medium supplemented with 100 mg/ml ampicillin (LB ampi) at 37° C. overnight and then diluted 1/100 in LB ampi. The cells were incubated at 37° C. until an A600=0.6-0.8 was reached. After induction with 0.1 mM isopropyl-β-D-thiogalactopyranoside (IPTG), the culture was incubated at 30° C. for 180 min.
Cells were harvested by centrifugation for 15 min at 7000×g at 4° C. Bacterial pellets were lysed in NETN (Tris HCl pH 8.0; EDTA 1 mM; NP40 0.5%; protease inhibitor cocktail, PMSF 1 mM) and briefly sonicated. Insoluble material was removed by centrifugation 30 min at 14000×g. […] Briefly, soluble fraction was incubated on Glutathione beads pre-equilibrated in NETN buffer+0.5% Milk for 120 min at 4° C. Flow Through was recovered. Beads were extensively washed: the last wash was performed in Tris HCl pH 7.6 20 mM; NaCl 100 mM; MgCl2 12 mM. Elutions were performed using 20 mM Reduced Glutathione in 50 mM Tris HCl pH 8.0, NaCl 120 mM. […] Elutions were dialysed over night at 4° C. in Tris HCl pH 7.6 20 mM; NaCl 50 mM; DTT 0.5 mM.
The use of GST-Ub52-Flag is based on the time-resolved measurement of fluorescence emitted by transfer in homogenous medium.
The assay is carried out on multiwell assay plates. The plates are analyzed on a PHERAstar fluorimeter (BMG) after an overnight incubation at 4° C.
The enzyme reaction is carried out by mixing GST-Ub52-flag solution with 5 μl of USP7 solution (200 pM final) or 5 μl of USP8 (400 pM final). This mixture is incubated for one hour at room temperature on a multiwell assay plate. […] The plate is read after an overnight incubation at 4° C. on a PHERAstar fluorimeter (BMG).
The decrease in the signal correlates with the increase in enzyme activity i.e. the cleavage of GST-Ub52-Flag substrate.
Data (mean values+/−standard deviation) were analyzed as % of control (no compound) and plotted as percentage versus the Log of the compound concentration using GraphPad (Prism).

USP7 = USP7 (Homo sapiens, UniProt Q93009); assay: USP7 activity assay, Ub-AMC substrate; type: biochemical; design: Full-length wild-type human USP7 and its catalytic mutant; His tag (pFastBac-HT vector) (N); made in house; host or cells: Spodoptera frugiperda Sf9 (or High Five) insect cells, baculovirus; conditions: UbAMC substrate 300 nM, USP7 100 pM
Description: Bacmid DNA was prepared by an alkaline lysis procedure. The integrity of the bacmid minipreps and their orientation were checked by PCR, using generic and specific primers. Sf9 insect cells were cultured in InsectXpress medium (Cambrex) at 27° C. and transfected with the corresponding bacmid, using GeneShuttle 40 (Q-BIOgen). Viruses were recovered in the supernatant 72 h after transfection. Viruses were amplified by infecting insect cells (Sf9 or High Five cells; invitrogen) in 50 ml InsectXpress medium in a 150 cm^2 cell culture flask with 500 μl of the supernatant from transfected Sf9 cells. Following the second round of amplification, infected cells were recovered by rapid SDS lysis, boiled for 5 min at 100° C., sonicated briefly and centrifuged for 20 min at 14,000 g.
USP7 was diluted in USP buffer (50 mM Tris HCl; 0.5 mM EDTA (Ethylenediaminetetraacetic acid); 5 mM DTT; 0.01% Triton X-100; Bovine Serum Albumin 0.05 mg·ml^−1 pH7.6). Compounds stocks (10 mM) were stored at −20° C. in DMSO.
Reactions were performed as duplicates in Black 384 well plates (small volumes microplates; Greiner; 10 μl final reaction volume). […] The concentrations of the enzyme (USP7) in specificity assays was 100 pM. The concentrations were determined in order to perform specificity assays under initial velocities at fixed substrate concentration. Compounds were pre-incubated with enzymes for 30 minutes at 25° C. Reactions were initiated by addition of substrate to the plates containing the enzymes (+/− compounds) diluted in assay buffer. Reactions were incubated for 60 minutes at 37° C. Reactions were stopped by adding acetic acid (100 mM final). Readings were performed on a Pherastar Fluorescent Reader (BMG). λ Emission […].

UCH-L3 = biological target: T2, UCH-L3 (Homo sapiens, UniProt P15374); assay: UCH-L3 activity assay, Ub-AMC substrate; type: biochemical; conditions: UbAMC substrate 300 nM, UCH-L3 13 pM
T2 sequence (P15374 1-230): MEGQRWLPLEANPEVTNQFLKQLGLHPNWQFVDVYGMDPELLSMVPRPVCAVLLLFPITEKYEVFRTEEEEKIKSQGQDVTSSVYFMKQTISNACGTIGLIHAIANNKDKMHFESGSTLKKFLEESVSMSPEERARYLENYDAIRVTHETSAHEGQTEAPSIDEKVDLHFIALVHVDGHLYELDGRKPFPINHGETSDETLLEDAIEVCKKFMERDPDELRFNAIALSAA
Description: UCH-L3 was diluted in USP buffer (50 mM Tris HCl; 0.5 mM EDTA; 5 mM DTT; 0.01% Triton X-100; Bovine Serum Albumin 0.05 mg·ml^−1 pH7.6). Compounds stocks (100 mM) were stored at −20° C. in DMSO. Compounds were tested at different concentrations: from 200 μM to 91 nM.
Reactions were performed as duplicates in Black 384 well plates (small volume microplates; Greiner; 10 μl final reaction volume). The substrate concentration for UCH-L3 was 300 nM Ub-AMC (Boston Biochem). The concentration of the enzyme (UCH-L3) in specificity assays was 13 pM. The concentrations were determined in order to perform specificity assays under initial velocities at fixed substrate concentration. Compounds were pre-incubated with enzymes for 30 minutes at 25° C. Reactions were initiated by addition of substrate to the plates containing the enzymes (+/− compounds) diluted in assay buffer. Reactions were incubated for 60 minutes at 37° C. Reactions were stopped by adding acetic acid (100 mM final). Readings were performed on a Pherastar Fluorescent Reader (BMG). λ Emission 380 nm; λ Excitation=460 nm.

USP7, sequence (Q93009 whole entry): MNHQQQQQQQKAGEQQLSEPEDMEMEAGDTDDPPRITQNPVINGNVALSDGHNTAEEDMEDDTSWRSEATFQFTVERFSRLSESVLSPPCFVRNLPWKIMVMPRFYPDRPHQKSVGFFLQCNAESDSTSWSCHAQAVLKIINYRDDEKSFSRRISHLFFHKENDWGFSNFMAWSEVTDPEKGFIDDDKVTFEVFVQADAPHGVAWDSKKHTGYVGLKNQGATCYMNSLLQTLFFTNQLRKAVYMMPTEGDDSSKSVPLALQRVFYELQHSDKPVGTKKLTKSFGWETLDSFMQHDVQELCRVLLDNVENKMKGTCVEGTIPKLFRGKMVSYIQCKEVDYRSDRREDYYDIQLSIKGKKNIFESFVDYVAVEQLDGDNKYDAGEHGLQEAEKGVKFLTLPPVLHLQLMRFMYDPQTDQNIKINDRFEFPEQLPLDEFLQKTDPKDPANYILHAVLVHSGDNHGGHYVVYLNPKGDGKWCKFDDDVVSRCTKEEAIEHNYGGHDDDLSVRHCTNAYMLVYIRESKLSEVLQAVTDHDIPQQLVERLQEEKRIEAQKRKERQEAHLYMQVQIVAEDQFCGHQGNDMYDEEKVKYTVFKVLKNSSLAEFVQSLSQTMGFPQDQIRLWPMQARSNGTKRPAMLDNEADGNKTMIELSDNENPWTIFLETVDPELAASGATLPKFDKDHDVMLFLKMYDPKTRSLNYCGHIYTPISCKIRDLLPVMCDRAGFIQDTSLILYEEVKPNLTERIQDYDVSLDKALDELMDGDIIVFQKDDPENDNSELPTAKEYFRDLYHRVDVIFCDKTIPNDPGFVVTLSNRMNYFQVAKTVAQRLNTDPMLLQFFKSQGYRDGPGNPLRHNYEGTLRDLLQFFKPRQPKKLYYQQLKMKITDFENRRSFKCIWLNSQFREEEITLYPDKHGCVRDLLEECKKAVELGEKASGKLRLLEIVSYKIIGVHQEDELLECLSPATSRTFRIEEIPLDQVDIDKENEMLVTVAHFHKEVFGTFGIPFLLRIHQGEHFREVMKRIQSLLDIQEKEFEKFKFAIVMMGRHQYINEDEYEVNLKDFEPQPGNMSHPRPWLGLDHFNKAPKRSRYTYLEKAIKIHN

Row | SMILES | IC50 (USP8) [µM] | IC50 (USP7) [µM] | IC50 (UCH-L3) [µM]
1 | O=C(CCc1ccccc1)N1CCC(O)(Cn2cnc3ccccc3c2=O)CC1 [Example 1, 3-{[4-hydroxy-1-(3-phenylpropanoyl)piperidin-4-yl]methyl}-3,4-dihydroquinazolin-4-one] | > 200 | 69 | > 200
2 | O=C(CCc1ccccc1)N1CCC(O)(Cn2cnc3cc(Cl)ccc3c2=O)CC1 [Example 2, 7-chloro-3-{[4-hydroxy-1-(3-phenylpropanoyl)piperidin-4-yl]methyl}-3,4-dihydroquinazolin-4-one] | – | 33 | > 200
3 | O=C(CCC1CCCC1)N1CCC(O)(Cn2cnc3ccccc3c2=O)CC1 [Example 3, 3-{[1-(3-cyclopentylpropanoyl)-4-hydroxypiperidin-4-yl]methyl}-3,4-dihydroquinazolin-4-one] | > 200 | 100 | > 200
4 | O=C(CCC1CCCC1)N1CCC(O)(Cn2cnc3cc(Cl)ccc3c2=O)CC1 [Example 4, 7-chloro-3-{[1-(3-cyclopentylpropanoyl)-4-hydroxypiperidin-4-yl]methyl}-3,4-dihydroquinazolin-4-one] | > 200 | 54 | > 200
5 | CC(Cc1cccs1)C(=O)N1CCC(O)(Cn2cnc3ccccc3c2=O)CC1 (stereo not shown) [Example 5, 3-({4-hydroxy-1-[2-methyl-3-(thiophen-2-yl)propanoyl]piperidin-4-yl}methyl)-3,4-dihydroquinazolin-4-one] | > 200 | 37 | > 200
6 | CC(C)C(=O)N1CCC(O)(Cn2cnc3ccccc3c2=O)CC1 [Example 6, 3-{[4-hydroxy-1-(2-methylpropanoyl)piperidin-4-yl]methyl}-3,4-dihydroquinazolin-4-one] | > 200 | 156 | > 200
7 | COc1cc2ncn(CC3(O)CCN(C(=O)C(C)C)CC3)c(=O)c2cc1OC [Example 7, 3-{[4-hydroxy-1-(2-methylpropanoyl)piperidin-4-yl]methyl}-6,7-dimethoxy-3,4-dihydroquinazolin-4-one] | > 200 | 90 | > 200
8 | CC(Cc1ccccc1)C(=O)N1CCC(O)(Cn2cnc3ccccc3c2=O)CC1 (stereo not shown) [Example 13, 3-{[1-(2-benzylpropanoyl)-4-hydroxypiperidin-4-yl]methyl}-3,4-dihydroquinazolin-4-one] | > 200 | – | > 200

Now from value to compound:

Row | IC50 (USP8) [µM] | IC50 (USP7) [µM] | IC50 (UCH-L3) [µM] | SMILES
9 | > 200 | 155 | > 200 | CCC(CC)C(=O)N1CCC(O)(Cn2cnc3cc(Cl)ccc3c2=O)CC1 [Example 9, 7-chloro-3-{[1-(2-ethylbutanoyl)-4-hydroxypiperidin-4-yl]methyl}-3,4-dihydroquinazolin-4-one]
10 | > 200 | 261 | > 200 | COc1ccccc1CCC(=O)N1CCC(O)(Cn2cnc3ccccc3c2=O)CC1 [Example 10, 3-({4-hydroxy-1-[3-(2-methoxyphenyl)propanoyl]piperidin-4-yl}methyl)-3,4-dihydroquinazolin-4-one]
11 | > 200 | 40 | > 200 | CC(Cc1cccs1)C(=O)N1CCC(O)(Cn2cnc3cc(Cl)ccc3c2=O)CC1 (stereo not shown) [Example 11, 7-chloro-3-({4-hydroxy-1-[2-methyl-3-(thiophen-2-yl)propanoyl]piperidin-4-yl}methyl)-3,4-dihydroquinazolin-4-one]
12 | > 200 | 70 | > 200 | O=C(CCc1cccs1)N1CCC(O)(Cn2cnc3ccccc3c2=O)CC1 [Example 12, 3-({4-hydroxy-1-[3-(thiophen-2-yl)propanoyl]piperidin-4-yl}methyl)-3,4-dihydroquinazolin-4-one]
13 | > 200 | 24 | > 200 | CC(Cc1ccccc1)C(=O)N1CCC(O)(Cn2cnc3cc(Cl)ccc3c2=O)CC1 (stereo not shown) [Example 14, 3-{[1-(2-benzylpropanoyl)-4-hydroxypiperidin-4-yl]methyl}-7-chloro-3,4-dihydroquinazolin-4-one]
